One experiment has as its system Kentucky bluegrass. Description: Greenhouse study on Kentucky bluegrass: turfgrass height, clip weight, turfgrass quality (Example 1). Format: in vivo. As for the experimental part: Greenhouse studies were conducted at the Research Farm of Valent BioSciences Corporation (Long Grove, Ill.). Grasses were grown in pots (18 cm in diameter and 18 cm in height) filled with Promix BX (available from Premier Horticulture Inc. Quakertown, Pa.). Grass was irrigated daily by an overhead irrigation system. The irrigation system was set up with multiple Tornado Mist Spray Heads (10 GPH at 40 PSI-Wetted diameter, NDS/Raindrip, Woodland Hills, Calif.). Spray heads were 1-meter apart from each other and 75 cm above grass canopy. Grass was cut with a scissor at 2.5 cm height and fertilizer (1 g/L all purpose fertilizer 20-20-20, available from The Scotts Company, Marysville, Ohio) was applied once per week.
(§1) Chemical solutions were prepared with distilled water. Tween 20 (0.05% v/v) was used as the surfactant when necessary. Trinexapac-ethyl (commercial product Primo Maxx, 11.3% active ingredient) was purchased from Syngenta Crop Protection Inc. (Greensboro, N.C.). ABA analogs, 8′ acetylene-ABA, acid (PBI-524), 8′ acetylene-ABA, ester (PBI-429), 8′ cyclopropane ester (PBI-696), or Tetralone, first carbon tail acetylene, ester (PBI-702), were obtained from Plant Biotechnology Institute, National Research Council of Canada (Saskatoon, Saskatchewan, Canada).
(§2) Chemical solutions were foliar applied to the turfgrass canopy at the rate of 4-gallons/1000 square foot (or 0.163 L/m^−2) immediately after finishing the preparation of solutions. After treatment, turfgrasses were arranged in a randomized complete block experimental design. Turfgrass quality, turfgrass height or clip fresh weight was measured on assigned dates. Turfgrass quality was visually rated on a 0-9 scale based on the color, uniformity, and density of the grass with 0 as the worst and 9 as the best. Turfgrass height was measured as the distance between canopy surface and soil. Clippings were collected form each plot; all plots were cut to a uniform height.
(§3) All experiments were randomized complete block experimental design. Data were analyzed by analysis of variance. Duncan's new multiple range tests at α=0.05 were used for mean separations.
Kentucky bluegrass sod was purchased from Deak sod farms, Inc. (Union Grove, Wis.). Grass was grown in the greenhouse for 94 days for establishment. Turfgrass was treated with one time foliar application of 50 ppm PBI-524, PBI-429, PBI-696 or PBI-702 alone or in combination with 250 ppm trinexapac-ethyl. The turfgrass was cut every 7 days. Turfgrass quality, turfgrass height, and clip weight were measured on days 7 and 35 after treatment.

Another experiment concerns creeping bentgrass. Description: Golf course green field study on creeping bentgrass with PBI-702: turfgrass height, soil moisture, turf quality (Example 3). It counts as in vivo, Penncross creeping bentgrass. To be noted: for Soil moisture / Turfgrass height / Turf quality: 50 ppm PBI-702 alone; for Turf quality: visual 0-9 scale, 9 best. On the procedure:
Field studies were conducted at the nursery green or the practice green at Countryside golf course (Mundelein, Ill.). Both greens were sand based and growing Penncross creeping bentgrass. Grass was managed with typical Illinois golf course management practices.
as §1, §2, §3
Trinexapac-ethyl (25 ppm) or PBI-702 (50 ppm) were one time foliar applied alone or in combination to creeping bentgrass in the golf course green to investigate their effect on turfgrass quality, growth inhibition and soil moisture.

Setting [1] is: 7 days after treatment, 50 ppm ABA analog alone.
Setting [2] is: 35 days after treatment, 50 ppm ABA analog alone.

Turning to `C#CC1(C)CC(=O)C=C(C)C1(O)C=CC(C)=CC(=O)O` (stereo not shown) [PBI-524, 8′ acetylene-ABA, acid], in the experiment on Kentucky bluegrass (setting [1]), the “Clip Weight” value is 0.5 g and the Turfgrass height was 5.8 cm. Besides, in the experiment with Kentucky bluegrass (7 days after treatment, 50 ppm ABA analog alone, visual 0-9 scale, 9 best), the Turfgrass quality was 6.6. Further, the “Turfgrass height and clip weight compared to the control (in words)” value in the experiment with Kentucky bluegrass (7 days after treatment, trinexapac-ethyl 250 ppm, PBI-524 or PBI-429 50 ppm, alone or combined) is “reduced turfgrass height and clip weight compared to the control”. In the experiment with Kentucky bluegrass (setting [2]), the “Clip Weight” value is listed as 1.9 g; the Turfgrass height was determined as 8.0 cm; the “Turfgrass height and clip weight (in words)” value is “no longer reduced turfgrass height and clip weight”.

In the case of `COC(=O)/C=C(/C)C#CC1(O)c2ccccc2C(=O)CC1(C)C` (stereo not shown) [PBI-702, Tetralone, first carbon tail acetylene, ester], the Soil moisture in the experiment on creeping bentgrass (4 days after treatment) came out at 12.3%; in the experiment with creeping bentgrass (7 days after treatment), 11.5%; with creeping bentgrass (38 days after treatment) it was 12.4%. In addition, the Turfgrass height turned out to be 6.7 mm with creeping bentgrass (4 days after treatment), 6.5 mm in the experiment on creeping bentgrass (7 days after treatment) and 5.5 mm with creeping bentgrass (38 days after treatment). Further, the Turf quality in the experiment on creeping bentgrass (7 days after treatment) is 7.3; in the experiment with creeping bentgrass (38 days after treatment), 7.6. In addition, in the experiment on creeping bentgrass (7 days after treatment, trinexapac-ethyl 25 ppm, PBI-702 50 ppm, alone or combined), the “Reducing growth (in words)” value is listed as “effective at reducing growth”.

The values are drawn from patent US20080254993A1, “Use of abscisic acid analogs to enhance growth control” (priority 2007, published 2008).
